Assay in all cases: NCI tumour cell line growth inhibition, 48 h
The test system of assay [1] is NCI-H522 lung.
Assay [2] deals with UACC-62 melanoma.
Assay [3] concerns SW-620 colon.
The subject of assay [4] is SF-268 CNS.
The subject of assay [5] is HOP-92 NSCLC.
Assay [6] has as its system ACHN renal.
The test system of assay [7] is HCT-116 colon.
Assay [8] relates to OVCAR-4 ovarian.
In assay [9] the test system is SK-MEL-28 melanoma.
Assay [10] relates to SF-539 CNS.

Where “and” joins values, the source holds several entries; their conditions need not be identical. Equal entries are not always repeated.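 Cells were grown in 96-well plates and exposed to each compound for 48 hours at five concentrations; endpoints were interpolated linearly between bracketing concentrations, or set to the highest concentration if not reached. Abbreviation: GI50, concentration required for 50% inhibition of growth. TGI is the concentration that stops growth completely.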

In the case of `O=C1C=C2C=CC3CC2(O1)C1CCCCN31` (centres undefined), the GI50 in assay [1] was 10.1 µM and 11.1 µM and 32.8 µM; in assay [2], 15.8 µM and 13.9 µM and 57.1 µM; in assay [3], 16.9 µM and 13.7 µM and 38 µM; in assay [4], 25.4 µM and 12.7 µM and 41.2 µM; in assay [6] it was 23.9 µM and 15.9 µM and 50.2 µM; in [7] it was 14.2 µM and 12.5 µM and 36.5 µM. In addition, the GI50 in assay [8] was 25.8 µM and 22.5 µM and 65 µM; in assay [9], 17.3 µM and 13.4 µM and 89.3 µM; in [10], 12.7 µM and 27 µM and 23.2 µM. Also, the TGI in assay [1] is 28.1 µM and 32.4 µM and > 100 µM; in assay [2] it was 42.3 µM and 30.1 µM and > 100 µM; in [3], 42.4 µM and 39 µM and > 100 µM; in assay [4], > 100 µM; in assay [5], 65.8 µM and 48.3 µM and 66 µM; in assay [6], > 100 µM and 84.3 µM. Besides, the TGI in [7] was 30.3 µM and 26.6 µM and > 100 µM; in assay [8], > 100 µM and 92.1 µM; in assay [9], 39 µM and 36.4 µM and > 100 µM; in assay [10], 35.8 µM and > 100 µM and 75.4 µM.
As to `CCNc1cc2oc(=O)cc(C(F)(F)F)c2cc1C`, the TGI in assay [1], in assay [2], in assay [3], in assay [4], in assay [5] and in assay [6] was > 100 µM throughout. For the same molecule, the TGI in [7], in assay [8], in assay [9] and in assay [10] was > 100 µM in each case.
Consider `O=c1cc(-c2ccccc2)oc2ccc(OC/C(=N/O)c3ccc(F)cc3)cc12`, for which the GI50 in [1] was 4.68 µM; in assay [2] it was 5.5 µM; in assay [3], 2.67 µM; in assay [4] it was 3.62 µM; in assay [5] it was 11.4 µM; in assay [6], 10.3 µM. Also, the GI50 was 2.97 µM in assay [7], 25.3 µM in assay [8], 3.33 µM in assay [9] and 1.92 µM in [10]. The TGI in assay [1] was > 50 µM; in [2] it was 22.8 µM; in assay [3], 32.8 µM; in [4], 14.3 µM; in [5] it was 41.5 µM; in assay [6], > 50 µM. Besides, the TGI is 9.05 µM in [7], > 50 µM in assay [8], 16.2 µM in [9] and 4.06 µM in assay [10].
Consider `COC12C=C/C(=C(/C(=O)OCCSc3ccnn3C)C(=O)CCCCCCCCC3(OC)C=C/C(=C(/C(=O)OCCSc4ccnn4C)C(=O)CCCCCCCC1)O3)O2`, for which the GI50 in assay [1] is 0.648 µM; in assay [2] it was 0.716 µM; in assay [3] it was 1.07 µM; in assay [4], 1.15 µM; in assay [5], 0.847 µM; in [6], 1.07 µM. Moreover, the GI50 was 0.66 µM in assay [7], 0.837 µM in [8], 1.09 µM in assay [9] and 1.16 µM in assay [10]. Further, the TGI in [1] was 1.62 µM; in [2], 1.85 µM; in assay [3] it was 5.38 µM; in [4] it was > 32.5 µM; in assay [5], 2.55 µM; in assay [6], > 32.5 µM. Also, the TGI in [7] was found to be 1.37 µM; in assay [8] it was 2.5 µM; in assay [9], 8.24 µM; in assay [10], 5.24 µM.
Turning to `c1cc(CN2CCCNCCNCCCNCC2)ccc1CN1CCCNCCNCCCNCC1`, the GI50 in [1], in [2], in [3], in assay [4], in assay [5] and in assay [6] was > 100 µM in each case. Besides, the GI50 in [7], in assay [8], in [9] and in assay [10] was > 100 µM each time. Also, the TGI in assay [1], in [2], in assay [3], in [4], in [5] and in [6] was > 100 µM in each case. Further, the TGI in [7], in assay [8], in assay [9] and in assay [10] was > 100 µM each time.
For `CCC[CH2][Sn]([CH2]CCC)([CH2]CCC)[O]C(=O)C(OC(C)=O)c1ccccc1` (centres undefined), the GI50 in [1] was 0.144 µM; in assay [2], 0.126 µM; in assay [3], 0.141 µM; in [4], 0.138 µM; in assay [5], 0.0409 µM; in [6] it was 0.143 µM. The GI50 is 0.136 µM in assay [7], 0.103 µM in assay [8], 0.142 µM in [9] and 0.165 µM in assay [10]. Moreover, the TGI in assay [1] was 0.287 µM; in assay [2], 0.255 µM; in [3], 0.273 µM; in [4], 0.368 µM; in [5], 0.222 µM; in assay [6], 0.274 µM. Besides, the TGI stood at 0.276 µM in [7], 0.221 µM in [8], 0.274 µM in [9] and 0.306 µM in assay [10].
Turning to `COC(NC(N)=O)C(=O)O` (centres undefined), the TGI in assay [1], in assay [2], in assay [3], in assay [4], in [5] and in [6] was > 100 µM each time. Besides, the TGI in assay [7], in [8], in assay [9] and in assay [10] was > 100 µM throughout.
`Cc1ccc(-c2c(C#N)[n+](=O)c3cc(F)c(F)cc3n2[O-])cc1`: the GI50 was 3.43 µM in [1]; 4.25 µM in assay [2]; 3.9 µM in assay [3]; 14.3 µM in assay [4]; 1.68 µM in [5]; 2.2 µM in assay [6]. The GI50 in [7] is 1.23 µM; in assay [8], 21.4 µM; in assay [9], 20.5 µM; in assay [10] it was 15.3 µM. In addition, the TGI in assay [1] came out at 76.9 µM; in assay [2] it was 16.1 µM; in assay [3], 16.1 µM; in assay [4], 30 µM; in assay [5] it was 3.84 µM; in assay [6], 5.83 µM. The TGI was 5.21 µM in assay [7], 41.2 µM in assay [8], 38.4 µM in [9] and 33.9 µM in assay [10].
`O=C1NC(=O)[C@@]2(CC[C@@H](O)C2)c2ccncc21`: the TGI in [1], in assay [2], in [3], in assay [4], in assay [5] and in [6] was > 100 µM each time. Further, the TGI in [7], in assay [8], in assay [9] and in [10] was > 100 µM in each case.
For `O=C1C=CC(=O)C2C1Cc1ccccc1C2c1ccccc1` (centres undefined), the TGI in assay [1] was 35.2 µM; in assay [2] it was > 100 µM; in [3], 71 µM; in assay [4], > 100 µM; in assay [5] it was 85 µM; in assay [6], > 100 µM. In addition, the TGI in [7] is > 100 µM; in [8], 46 µM; in [9] it was > 100 µM; in [10], > 100 µM.
For `COc1ccc(-c2nsc3c2NC(=O)CC3c2ccc3c(c2)OCCO3)cc1` (centres undefined), the GI50 is 0.551 µM in assay [1]; 0.482 µM in assay [2]; 0.384 µM in [3]; 1.92 µM in [4]; 0.356 µM in [5]; 0.892 µM in assay [6]. In addition, the GI50 was 0.526 µM in assay [7], 2.86 µM in [8], 2.7 µM in [9] and 0.8 µM in assay [10]. The TGI in [1], in assay [2], in assay [3], in assay [4], in [5] and in assay [6] was > 100 µM throughout. Also, the TGI in assay [7] was > 100 µM; in [8], > 100 µM; in assay [9], > 100 µM; in assay [10] it was 6.71 µM.
For `COc1cccc(Sc2ccc([N+](=O)[O-])c3no[n+]([O-])c23)c1`, the GI50 was 1.98 µM in assay [1]; 13.7 µM in [2]; 2.5 µM in [3]; 12.5 µM in assay [4]; 15.5 µM in assay [5]; 2.84 µM in assay [6]. Besides, the GI50 in assay [7] was 3.7 µM; in assay [8], 10.1 µM; in [9], 6.52 µM; in [10], 14.7 µM. Besides, the TGI in [1] worked out at 3.93 µM; in [2], 36 µM; in [3], 6.14 µM; in assay [4], 30 µM; in assay [5], 32.7 µM; in assay [6], 8.78 µM. The TGI in assay [7] was found to be 14.4 µM; in assay [8], 27 µM; in assay [9], 14 µM; in [10] it was 28.1 µM.
Consider `C=C1C(=O)O[C@H]2[C@H]1CC/C(COC(=O)c1cn(C)c3ccccc13)=C\CC[C@@]1(C)O[C@@H]21`, for which the GI50 in assay [1] is 0.399 µM; in assay [2], 1.26 µM; in assay [3], 0.301 µM; in assay [4], 1.3 µM; in assay [5], 0.365 µM; in [6], 0.828 µM. Further, the GI50 in [7] is 1.02 µM; in assay [8] it was 1.14 µM; in assay [9], 1.55 µM; in [10] it was 0.741 µM. Besides, the TGI in assay [1] came to 1.62 µM; in assay [2] it was 2.74 µM; in [3], 1.1 µM; in assay [4] it was 2.86 µM; in assay [5] it was 2 µM; in assay [6], 2.09 µM. The TGI came to 2.24 µM in assay [7], 3.04 µM in [8], 3.08 µM in assay [9] and 2.13 µM in assay [10].

The values are drawn from PubChem BioAssay (NCI).
